# Source: patent US20230365592A1 (Agios Pharmaceuticals, Inc., priority 2022, published 2023)
# Molecular target: T1, human PAH with the R408W mutation (Homo sapiens, UniProt P00439, R408W)
# T1 construct: expressed in transfected cells
# T1 sequence (P00439 1-452 R408W): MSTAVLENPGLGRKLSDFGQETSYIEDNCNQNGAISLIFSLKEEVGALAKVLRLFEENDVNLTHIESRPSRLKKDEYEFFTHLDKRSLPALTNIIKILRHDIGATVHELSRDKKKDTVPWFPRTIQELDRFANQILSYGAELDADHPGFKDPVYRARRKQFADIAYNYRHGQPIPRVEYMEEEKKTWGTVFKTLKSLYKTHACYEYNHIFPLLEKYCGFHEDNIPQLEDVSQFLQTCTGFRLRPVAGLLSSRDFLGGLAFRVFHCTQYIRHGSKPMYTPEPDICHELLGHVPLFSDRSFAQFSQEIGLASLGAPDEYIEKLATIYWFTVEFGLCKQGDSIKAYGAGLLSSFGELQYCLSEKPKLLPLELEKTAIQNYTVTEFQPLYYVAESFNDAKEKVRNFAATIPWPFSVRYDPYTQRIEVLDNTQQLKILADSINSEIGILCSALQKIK
# Experiment: Cell Based Phenylalanine Flux Assay;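 also: after compound treatment, cells received sepiapterin plus isotope-labelled Phenylalanine for 4 hours, then labelled Tyrosine in the medium was quantified, 10-point 2-fold dilution series run in duplicate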
# Conditions: A375 cells expressing R408W PAH; 24 hrs with compound, then 20 µM sepiapterin and 800 µM 13C9,15N-Phenylalanine for 4 hours; 13C-Tyrosine by LC-MS; average where tested multiple times; read-out: AC50
row,SMILES,AC50
1,Cc1nc(C(=O)N2CCc3[nH]cnc3C2c2cc3c(F)cccn3n2)n(C)n1 (stereo not shown),1000 to 5000 nM
2,O=C(c1nnc(-c2ncccn2)o1)N1CCc2[nH]cnc2C1c1cc2cccc(F)n2n1 (stereo not shown),1000 to 5000 nM

# Same assay, conditions: A375 cells expressing human PAH R408W; 24 hrs compound incubation; 13C-Tyrosine by LC-MS; average where tested multiple times; read-out: AC50
row,SMILES,AC50
1,"Cn1cc(-c2nc(C3CC3)c(C(=O)N3CCc4[nH]cnc4[C@@H]3c3cc4c(F)cccn4n3)o2)cn1 [Example 2072, (R)-(4-cyclopropyl-2-(1-methyl-1H-pyrazol-4-yl)oxazol-5-yl)(4-(4-fluoropyrazolo[1,5-a]pyridin-2-yl)-1,4,6,7-tetrahydro-5H-imidazo[4,5-c]pyridin-5-yl)methanone]",> 5000 nM
2,"Nc1cnc(N2CCc3[nH]cnc3[C@H]2c2cc3c(C(F)F)cccn3n2)nc1 [Example 1852, (S)-2-(4-(4-(difluoromethyl)pyrazolo[1,5-a]pyridin-2-yl)-1,4,6,7-tetrahydro-5H-imidazo[4,5-c]pyridin-5-yl)pyrimidin-5-amine]",500 to 1000 nM
3,"FC(F)c1nnc(N2CCc3[nH]cnc3[C@H]2c2cc3cccc(C(F)F)n3n2)o1 [Example 2221, (S)-2-(difluoromethyl)-5-(4-(7-(difluoromethyl)pyrazolo[1,5-a]pyridin-2-yl)-1,4,6,7-tetrahydro-5H-imidazo[4,5-c]pyridin-5-yl)-1,3,4-oxadiazole]",1000 to 5000 nM
4,"FC(F)(F)c1cccn2nc([C@@H]3c4nc[nH]c4CCN3c3nnc(C4CCC4)o3)cc12 [Example 2482, (S)-2-cyclobutyl-5-(4-(4-(trifluoromethyl)pyrazolo[1,5-a]pyridin-2-yl)-6,7-dihydro-1H-imidazo[4,5-c]pyridin-5(4H)-yl)-1,3,4-oxadiazole]",1000 to 5000 nM
5,"COc1cccn2nc([C@@H]3c4nc[nH]c4CCN3C(=O)c3nc(C)nn3C)cc12 [Example 2393, (S)-(1,3-dimethyl-1H-1,2,4-triazol-5-yl)(4-(4-methoxypyrazolo[1,5-a]pyridin-2-yl)-6,7-dihydro-1H-imidazo[4,5-c]pyridin-5(4H)-yl)methanone]",1000 to 5000 nM
6,"O=C(c1cnc(C2CC2)o1)N1CCc2[nH]cnc2[C@H]1c1cc2c(C(F)(F)F)cccn2n1 [Example 2140, (S)-(2-cyclopropyloxazol-5-yl)(4-(4-(trifluoromethyl)pyrazolo[1,5-a]pyridin-2-yl)-1,4,6,7-tetrahydro-5H-imidazo[4,5-c]pyridin-5-yl)methanone]",< 500 nM
7,"COc1cccn2nc([C@@H]3c4nc[nH]c4CCN3c3ncccn3)cc12 [Example 2299, (S)-4-(4-methoxypyrazolo[1,5-a]pyridin-2-yl)-5-(pyrimidin-2-yl)-4,5,6,7-tetrahydro-1H-imidazo[4,5-c]pyridine]",< 500 nM

# Same assay, conditions: A375 cells expressing human R408W PAH; 24 hrs compound incubation; 13C-Tyrosine by LC-MS; average where tested multiple times; read-out: AC50
row,SMILES,AC50
1,"O=C(c1cnn2ccccc12)N1CCc2[nH]cnc2[C@@H]1c1cc2c(F)cccn2n1 [Example 1288, (R)-(4-(4-fluoropyrazolo[1,5-a]pyridin-2-yl)-6,7-dihydro-1H-imidazo[4,5-c]pyridin-5(4H)-yl)(pyrazolo[1,5-a]pyridin-3-yl)methanone]",500 to 1000 nM
2,"Cc1cccc(-c2nnc(C(=O)N3CCc4[nH]cnc4[C@H]3c3cc4cccc(F)n4n3)o2)n1 [Example 1496, (S)-(4-(7-fluoropyrazolo[1,5-a]pyridin-2-yl)-6,7-dihydro-1H-imidazo[4,5-c]pyridin-5(4H)-yl)(5-(6-methylpyridin-2-yl)-1,3,4-oxadiazol-2-yl)methanone]",< 500 nM
3,"N#Cc1ncoc1C(=O)N1CCc2[nH]cnc2[C@H]1c1cc2c(Cl)cccn2n1 [Example 686, (S)-5-(4-(4-chloropyrazolo[1,5-a]pyridin-2-yl)-4,5,6,7-tetrahydro-1H-imidazo[4,5-c]pyridine-5-carbonyl)oxazole-4-carbonitrile]",< 500 nM
4,"O=C(c1ccnn1C(F)F)N1CCc2[nH]cnc2[C@H]1c1cc2c(F)cccn2n1 [Example 776, (S)-(1-(difluoromethyl)-1H-pyrazol-5-yl)(4-(4-fluoropyrazolo[1,5-a]pyridin-2-yl)-6,7-dihydro-1H-imidazo[4,5-c]pyridin-5(4H)-yl)methanone]",< 500 nM
5,"Cc1cccn2nc([C@@H]3c4nc[nH]c4CCN3C(=O)c3nnc(-c4cnccn4)o3)cc12 [Example 957, (S)-(4-(4-methylpyrazolo[1,5-a]pyridin-2-yl)-6,7-dihydro-1H-imidazo[4,5-c]pyridin-5(4H)-yl)(5-(pyrazin-2-yl)-1,3,4-oxadiazol-2-yl)methanone]",< 500 nM
6,"O=C(c1nnc(C2CC2)o1)N1CCc2[nH]cnc2[C@@H]1c1cc2cccc(C(F)F)n2n1 [Example 1391, (R)-(5-cyclopropyl-1,3,4-oxadiazol-2-yl)(4-(7-(difluoromethyl)pyrazolo[1,5-a]pyridin-2-yl)-6,7-dihydro-1H-imidazo[4,5-c]pyridin-5(4H)-yl)methanone]",1000 to 5000 nM
7,"c1ccc(-c2nnc(N3CCc4[nH]cnc4[C@@H]3c3cc4ccccn4n3)o2)nc1 [Example 1290, (R)-2-(4-(pyrazolo[1,5-a]pyridin-2-yl)-6,7-dihydro-1H-imidazo[4,5-c]pyridin-5(4H)-yl)-5-(pyridin-2-yl)-1,3,4-oxadiazole]",1000 to 5000 nM
8,"COc1ccc(-c2nnc(C(=O)N3CCc4[nH]cnc4[C@@H]3c3cc4cccc(Cl)n4n3)o2)nc1 [Example 1096, (R)-(4-(7-chloropyrazolo[1,5-a]pyridin-2-yl)-6,7-dihydro-1H-imidazo[4,5-c]pyridin-5(4H)-yl)(5-(5-methoxypyridin-2-yl)-1,3,4-oxadiazol-2-yl)methanone]",> 5000 nM
9,"Cc1cccc2cc([C@H]3c4nc[nH]c4CCN3C(=O)c3nnc(-c4ncccn4)o3)nn12 [Example 1336, (R)-(4-(7-methylpyrazolo[1,5-a]pyridin-2-yl)-6,7-dihydro-1H-imidazo[4,5-c]pyridin-5(4H)-yl)(5-(pyrimidin-2-yl)-1,3,4-oxadiazol-2-yl)methanone]",1000 to 5000 nM
10,"O=C(c1nnc(-c2ccc(C(F)(F)F)cn2)o1)N1CCc2[nH]cnc2[C@@H]1c1cc2c(F)cccn2n1 [Example 878, (R)-(4-(4-fluoropyrazolo[1,5-a]pyridin-2-yl)-6,7-dihydro-1H-imidazo[4,5-c]pyridin-5(4H)-yl)(5-(5-(trifluoromethyl)pyridin-2-yl)-1,3,4-oxadiazol-2-yl)methanone]",> 5000 nM
11,"Cc1cccn2nc([C@@H]3c4nc[nH]c4CCN3C(=O)c3nc(C4CC4)nn3C)cc12 [Example 1058, (S)-(3-cyclopropyl-1-methyl-1H-1,2,4-triazol-5-yl)(4-(4-methylpyrazolo[1,5-a]pyridin-2-yl)-6,7-dihydro-1H-imidazo[4,5-c)pyridin-5(4H)-yl)methanone]",500 to 1000 nM
12,"Cc1cccn2nc([C@H]3c4nc[nH]c4CCN3C(=O)c3nnc(-c4cnn(C(F)F)c4)o3)cc12 [Example 821, (R)-(5-(1-(difluoromethyl)-1H-pyrazol-4-yl)-1,3,4-oxadiazol-2-yl)(4-(4-methylpyrazolo[1,5-a]pyridin-2-yl)-6,7-dihydro-1H-imidazo[4,5-c]pyridin-5(4H)-yl)methanone]",> 5000 nM
13,"Cc1cccc2cc([C@@H]3c4nc[nH]c4CCN3C(=O)c3cc(C(F)F)nn3C)nn12 [Example 1388, (S)-(3-(difluoromethyl)-1-methyl-1H-pyrazol-5-yl)(4-(7-methylpyrazolo[1,5-a]pyridin-2-yl)-6,7-dihydro-1H-imidazo[4,5-c]pyridin-5(4H)-yl)methanone]",< 500 nM
